Test results as given in ChEMBL document CHEMBL1153496, “SAR studies on azasterols as potential anti-trypanosomal and anti-leishmanial agents” (Bioorg Med Chem, 2009).

Assays:
[1] = Cytotoxicity against rat L6 cells; format: cell-based; settings: read-out: TD50 (the source's name)
Leishmania donovani = experiment: Antitrypanosomal activity against Leishmania donovani amastigotes; format: functional, organism-based
[2] = system: Trypanosoma brucei rhodesiense; experiment: Antitrypanosomal activity against Trypanosoma brucei rhodesiense blood stream form; format: functional, organism-based
Trypanosoma cruzi = experiment: Antitrypanosomal activity against Trypanosoma cruzi amastigotes; format: functional, organism-based
[3] = Lipophilicity, log D of the compound; format: physicochemical; settings: octanol/water
KB = experiment: Cytotoxicity against human KB cells; format: functional, cell-based
[4] = Stability assessed as ionization at pH 7.4; format: physicochemical
[5] = Dissociation constant, pKa of the compound; format: physicochemical
[6] = Inhibition of Saccharomyces cerevisiae SMT

Compound	EC50 [2]	EC50 (Trypanosoma cruzi)	logD [3]	Activity [4]	pKa [5]	IC50 [6]	CC50 [1]	EC50 (Leishmania donovani)	EC50 (KB)
CC(=O)O[C@H]1CC[C@@]2(C)C(=CC[C@H]3[C@@H]4CC[C@H]([C@H](C)CCC(=O)NCCCCCC(=O)O)[C@@]4(C)CC[C@@H]32)C1	56 µM	41.9 µM	–	–	–	–	63 µM	2 µM	–
COC(=O)CCCNC[C@@H](C)[C@H]1CC[C@H]2[C@@H]3CC=C4C[C@@H](OC(=O)c5cccnc5)CC[C@]4(C)[C@H]3CC[C@]12C	0.8 µM	2.51 µM	5.2	–	–	–	9.8 µM	13.7 µM	–
CC(=O)O[C@H]1CC[C@@]2(C)C(=CC[C@H]3[C@@H]4CC[C@H]([C@H](C)CCCNCCCCCC(=O)O)[C@@]4(C)CC[C@@H]32)C1	11.2 µM	28.9 µM	–	–	–	–	56 µM	11.4 µM	–
COC(=O)CCCCCNC(=O)CC[C@@H](C)[C@H]1CC[C@H]2[C@@H]3CC=C4C[C@@H](OC(C)=O)CC[C@]4(C)[C@H]3CC[C@]12C	14.6 µM	23 µM	–	–	–	–	> 165 µM	1.6 µM	–
COC(=O)CCCNC[C@@H](C)[C@H]1CC[C@H]2[C@@H]3CC=C4C[C@@H](OC(=O)CC(C)C)CC[C@]4(C)[C@H]3CC[C@]12C	3.9 µM	10.8 µM	6	–	–	–	33.2 µM	4.9 µM	–
COC(=O)CCCNCCC[C@@H](C)[C@H]1CC[C@H]2[C@@H]3CC=C4C[C@@H](OC(C)=O)CC[C@]4(C)[C@H]3CC[C@]12C	1.8 µM	7.4 µM	–	–	–	–	5.8 µM	23.8 µM	–
COC(=O)CCCNC[C@@H](C)[C@H]1CC[C@H]2[C@@H]3CC=C4C[C@@H](OC(=O)CCC(=O)O)CC[C@]4(C)[C@H]3CC[C@]12C	9.8 µM	13.7 µM	4.1	99%	4.4	–	76.7 µM	35.7 µM	–
CC(=O)O[C@H]1CC[C@@]2(C)C(=CC[C@H]3[C@@H]4CC[C@H]([C@H](C)CCCN5CCCC5=O)[C@@]4(C)CC[C@@H]32)C1	38.3 µM	25 µM	–	–	–	–	2.5 µM	13.9 µM	–
CC(=O)O[C@H]1CC[C@@]2(C)C(=CC[C@H]3[C@@H]4CC[C@H]([C@H](C)CCC(=O)N(C)C)[C@@]4(C)CC[C@@H]32)C1	21.7 µM	28.2 µM	–	–	–	–	> 202 µM	24.6 µM	–
COC(=O)CCCNC[C@@H](C)[C@H]1CC[C@H]2[C@@H]3CC=C4C[C@@H](OC(=O)C(C)(C)C)CC[C@]4(C)[C@H]3CC[C@]12C	2.2 µM	9.7 µM	5.8	–	–	–	11.1 µM	11.3 µM	–

Continued, in another order:

EC50 [2]	EC50 (Trypanosoma cruzi)	logD [3]	Activity [4]	pKa [5]	IC50 [6]	Compound	CC50 [1]	EC50 (Leishmania donovani)	EC50 (KB)
0.012 µM	24.7 µM	–	–	–	–	COC(=O)CCCNC[C@@H](C)[C@H]1CC[C@H]2[C@@H]3CC=C4C[C@@H](OC(C)=O)CC[C@]4(C)[C@H]3CC[C@]12C	–	19.2 µM	19.2 µM
6.2 µM	11.6 µM	4.4	34%	7.1	–	COC(=O)CCCNC[C@@H](C)[C@H]1CC[C@H]2[C@@H]3CC=C4C[C@@H](OC(=O)CN(C)C)CC[C@]4(C)[C@H]3CC[C@]12C	24 µM	18.5 µM	–
0.8 µM	7.6 µM	5.1	–	–	–	CCC(=O)O[C@H]1CC[C@@]2(C)C(=CC[C@H]3[C@@H]4CC[C@H]([C@H](C)CNCCCC(=O)OC)[C@@]4(C)CC[C@@H]32)C1	21.9 µM	12.1 µM	–
1.6 µM	1.7 µM	5.6	–	–	–	CCCC(=O)O[C@H]1CC[C@@]2(C)C(=CC[C@H]3[C@@H]4CC[C@H]([C@H](C)CNCCCC(=O)OC)[C@@]4(C)CC[C@@H]32)C1	30.7 µM	6.8 µM	–
2 µM	11.1 µM	–	–	–	–	COC(=O)CCCCCNCCC[C@@H](C)[C@H]1CC[C@H]2[C@@H]3CC=C4C[C@@H](OC(C)=O)CC[C@]4(C)[C@H]3CC[C@]12C	7.4 µM	11.7 µM	–
–	–	–	–	–	0.08 µM	C[C@H](CCCN(C)C)[C@H]1CC[C@H]2C3=C(CC[C@]12C)[C@@]1(C)CC[C@H](O)C[C@@H]1CC3	–	–	–
18.4 µM	19.7 µM	–	–	–	–	COC(=O)CCCNC(=O)CC[C@@H](C)[C@H]1CC[C@H]2[C@@H]3CC=C4C[C@@H](OC(C)=O)CC[C@]4(C)[C@H]3CC[C@]12C	> 174 µM	3.1 µM	–
